Assay results reported in patent publication US10449258B2, “Antibody drug conjugate, intermediate, preparation method, pharmaceutical composition and uses thereof” (XDCEXPLORER (SHANGHAI) CO., LTD., priority 2015, dated 2019).
Where two headings read alike, the source gives them in different places.

Columns and labels:
[1] = system: Her2-positive human BT474 breast tumor cells; assay: Cytotoxicity assay (growth inhibition, CellTiter-Glo) on BT474
Experimental: (§1) Her2-positive human BT474 breast tumor cells (BT474 for short), Her2 low expression human MCF-7 breast tumor cells (MCF-7 for short), and human breast tumor cell strain MCF7-Her2 with stable-transfected Her2 outside MCF-7 (MCF-7-Her2 for short) were used (they were prepared by the methods disclosed in the literatures for preparing recombinant cells: Teemu T. Junttila, et al., Breast. Cancer Res. Treat., 2011, 128, 347 and Jeffrey J. Wallin et al., Clin. Cancer Res., 2012, 18, 3901, the contents of which are incorporated herein by reference in their entireties). The growth inhibition of tumor cells by T-CE-040 and T-CE-063 antibody drug conjugates were evaluated. BT474, MCF7-Her2 and MCF-7 were digested with 0.25% (v/v) trypsin and the cells were stripped and then suspended in 100 μL complete medium. 2,000 cells were inoculated in a 96-well plate and cultured, grew adherently overnight at 37° C., then 100 μL T-CE-040 and T-CE-063 antibody drug conjugates with different concentration gradients and the complete medium were added. After 120 hours, relative cell proliferation analysis was performed by adding 50 μL CellTiter-Glo® […] Cell Activation Reagent (CellTiter-GloB Luminescent, Promega).

[2] = system: Her2 low expression human MCF-7 breast tumor cells; assay: Cytotoxicity assay (growth inhibition, CellTiter-Glo) on MCF-7
Experimental: as §1

[3] = system: human breast tumor cell strain MCF7-Her2 with stable-transfected Her2; assay: Cytotoxicity assay (growth inhibition, CellTiter-Glo) on MCF7-Her2
Experimental: as §1

[4] = Homo sapiens, BT-474, 120 h, read-out: Cytotoxicity assay IC50 BT474, BT474 cells, 120 hours, CellTiter-Glo
[5] = Homo sapiens, MCF7, 120 h, read-out: Cytotoxicity assay IC50 MCF7, MCF-7 cells, 120 hours, CellTiter-Glo
[6] = Homo sapiens, 120 h, read-out: Cytotoxicity assay IC50 MCF-Her2, MCF7-Her2 cells, 120 hours, CellTiter-Glo
[7] = read-out: Cytotoxicity assay IC50 BT474, BT474 cells, 120 hours, CellTiter-Glo
[8] = read-out: Cytotoxicity assay IC50 MCF7, MCF-7 cells, 120 hours, CellTiter-Glo
[9] = read-out: Cytotoxicity assay IC50 MCF-Her2, MCF7-Her2 cells, 120 hours, CellTiter-Glo

| Structure (SMILES) | IC50 [1, 4] [nM] | IC50 [2, 5] [nM] | IC50 [3, 6] [nM] | IC50 [1, 7] [nM] | IC50 [2, 8] [nM] | IC50 [3, 9] [nM] |
| --- | --- | --- | --- | --- | --- | --- |
| COc1cc2cc(c1Cl)N(C)C(=O)C[C@H](OC(=O)[C@H](C)N(C)[C@@H](CCSSC)C(F)(F)F)[C@]1(C)O[C@H]1[C@H](C)[C@@H]1C[C@@](O)(NC(=O)O1)[C@H](OC)/C=C/C=C(\C)C2 (single isomer, unassigned) [CE-029] | 0.85 | 2 | 1.7 |  |  |  |
| COCC(S)(CCC(=O)N(C)[C@@H](C)C(=O)OC1CC(=O)N(C)c2cc(cc(OC)c2Cl)C/C(C)=C/C=C/[C@@H](OC)[C@@]2(O)C[C@H](OC(=O)N2)[C@@H](C)[C@@H]2O[C@@]12C)COC (stereo partly drawn) [CE-024] | 20.1 | 23.1 | 50 |  |  |  |
| COc1cc2cc(c1Cl)N(C)C(=O)C[C@H](OC(=O)[C@H](C)OCCOCCSC1CC(=O)N(CCC(=O)NCCOCCOCCOCCC(=O)ON3C(=O)CCC3=O)C1=O)[C@]1(C)O[C@H]1[C@H](C)C1C[C@@](O)(NC(=O)O1)[C@H](OC)/C=C/C=C(\C)C2 (stereo partly drawn) [XDCE-M-002] | 41.6 | 51.5 | 64.3 |  |  |  |
| COc1cc2cc(c1Cl)N(C)C(=O)C[C@H](OC(=O)C(COCCCSSC)OC)[C@]1(C)O[C@H]1[C@H](C)C1C[C@@](O)(NC(=O)O1)[C@H](OC)/C=C/C=C(\C)C2 (single isomer, unassigned) [CE-054-1] | 10 | 7 | 3.4 |  |  |  |
| COc1cc2cc(c1Cl)N(C)C(=O)C[C@H](OC(=O)[C@H]1CC[C@H](CSC3CC(=O)N(C[C@H]4CC[C@H](C(=O)ON5C(=O)CCC5=O)CC4)C3=O)CC1)[C@]1(C)O[C@H]1[C@H](C)C1C[C@@](O)(NC(=O)O1)[C@H](OC)/C=C/C=C(\C)C2 (stereo partly drawn) [CE-036] | 8.05 | 13.1 | 6.9 |  |  |  |
| COc1cc2cc(c1Cl)N(C)C(=O)C[C@H](OC(=O)[C@@H](C)N(C)C(=O)CCS)C1(C)O[C@H]1[C@H](C)C1C[C@@](O)(NC(=O)O1)[C@H](OC)/C=C/C=C(\C)C2 (stereo partly drawn) [DM1, N2′-deacetyl-N2′-(3-mercapto-1-oxopropyl)maytansine, reference compound] | 21 | 16 | 14 |  |  |  |
| COc1cc2cc(c1Cl)N(C)C(=O)C[C@H](OC(=O)[C@H](C)OCCOCCSSC)[C@]1(C)O[C@H]1[C@H](C)[C@@H]1C[C@@](O)(NC(=O)O1)[C@H](OC)/C=C/C=C(\C)C2 [CE-028] | 12 | 41 | 33 |  |  |  |
| COc1cc2cc(c1Cl)N(C)C(=O)C[C@H](OC(=O)[C@H](C)OCCSSC)[C@]1(C)O[C@H]1[C@H](C)[C@@H]1C[C@@](O)(NC(=O)O1)[C@H](OC)/C=C/C=C(\C)C2 [CE-026] | 14 | 41 | 17 |  |  |  |
| COc1cc2cc(c1Cl)N(C)C(=O)C[C@H](OC(=O)[C@H](C)N(C)[C@H](CCSSC)C(F)(F)F)[C@]1(C)O[C@H]1[C@H](C)[C@@H]1C[C@@](O)(NC(=O)O1)[C@H](OC)/C=C/C=C(\C)C2 (single isomer, unassigned) [CE-030] | 2.4 | 6.2 | 3.2 |  |  |  |
| COc1cc2cc(c1Cl)N(C)C(=O)C[C@H](OC(=O)[C@H](C)N(C)C(CCSC1CC(=O)N(C[C@H]3CC[C@H](C(=O)ON4C(=O)CCC4=O)CC3)C1=O)C(F)(F)F)[C@]1(C)O[C@H]1[C@H](C)C1C[C@@](O)(NC(=O)O1)[C@H](OC)/C=C/C=C(\C)C2 (stereo partly drawn) [CE-038] | 163 | 873 | 425 |  |  |  |
| COc1cc2cc(c1Cl)N(C)C(=O)C[C@H](OC(=O)C(C)(C)OCCCSC1CC(=O)N(C[C@H]3CC[C@H](C(=O)ON4C(=O)CCC4=O)CC3)C1=O)[C@]1(C)O[C@H]1[C@H](C)C1C[C@@](O)(NC(=O)O1)[C@H](OC)/C=C/C=C(\C)C2 (stereo partly drawn) [CE-049] | 138 | 207 | 139 |  |  |  |
| COc1cc2cc(c1Cl)N(C)C(=O)CC(OC(=O)[C@H](C)N(C)C(=O)CCC(SSC)C(C)C)[C@]1(C)O[C@H]1[C@H](C)[C@@H]1C[C@@](O)(NC(=O)O1)[C@H](OC)/C=C/C=C(\C)C2 (stereo partly drawn) [CE-022] | 13 | 10 | 6 |  |  |  |
| COCC(CCC(=O)N(C)[C@@H](C)C(=O)OC1CC(=O)N(C)c2cc(cc(OC)c2Cl)C/C(C)=C/C=C/[C@@H](OC)[C@@]2(O)C[C@H](OC(=O)N2)[C@@H](C)[C@@H]2O[C@@]12C)(COC)SSC (stereo partly drawn) [CE-017] | 14 | 8.9 | 3.1 |  |  |  |
| COc1cc2cc(c1Cl)N(C)C(=O)C[C@H](OC(=O)[C@H](C)OCCCSC1CC(=O)N(C[C@H]3CC[C@H](C(=O)ON4C(=O)CCC4=O)CC3)C1=O)[C@]1(C)O[C@H]1[C@H](C)C1C[C@@](O)(NC(=O)O1)[C@H](OC)/C=C/C=C(\C)C2 (stereo partly drawn) [CE-035] |  |  |  | 26.8 | 25.8 | 15.1 |
| COc1cc2cc(c1Cl)N(C)C(=O)C[C@H](OC(=O)[C@H](C)OCCCSC1CC(=O)N(C[C@H]3CC[C@H](C(=O)ON4C(=O)CCC4=O)CC3)C1=O)[C@]1(C)O[C@H]1[C@H](C)C1C[C@@](O)(NC(=O)O1)[C@H](OC)/C=C/C=C(\C)C2 (stereo partly drawn) [CE-051] |  |  |  | 112 | 119 | 51.4 |
| COc1cc2cc(c1Cl)N(C)C(=O)C[C@H](OC(=O)[C@H](C)OCCSC1CC(=O)N(C[C@H]3CC[C@H](C(=O)ON4C(=O)CCC4=O)CC3)C1=O)[C@]1(C)O[C@H]1[C@H](C)C1C[C@@](O)(NC(=O)O1)[C@H](OC)/C=C/C=C(\C)C2 (stereo partly drawn) [CE-037] | 49.3 | 136 | 70.6 |  |  |  |
| COc1cc2cc(c1Cl)N(C)C(=O)C[C@H](OC(=O)[C@H](C)N(C)C(=O)CCC(C)(C#N)SSC)[C@]1(C)O[C@H]1[C@H](C)[C@@H]1C[C@@](O)(NC(=O)O1)[C@H](OC)/C=C/C=C(\C)C2 (stereo partly drawn) [CE-019] | 64 | 150 | 57 |  |  |  |
| COc1cc2cc(c1Cl)N(C)C(=O)C[C@H](OC(=O)[C@H](C)OCCOCCOCCN1C(=O)C=CC1=O)[C@]1(C)O[C@H]1[C@H](C)C1C[C@@](O)(NC(=O)O1)[C@H](OC)/C=C/C=C(\C)C2 [CE-047] | 325 | 327 | 134 |  |  |  |
| COc1cc2cc(c1Cl)N(C)C(=O)C[C@H](OC(=O)C1CCC(CSSC)OC1)[C@]1(C)O[C@H]1[C@H](C)C1C[C@@](O)(NC(=O)O1)[C@H](OC)/C=C/C=C(\C)C2 (stereo partly drawn) [CE-053-1] | 22 | 22 | 13 |  |  |  |
| COc1cc2cc(c1Cl)N(C)C(=O)C[C@H](OC(=O)C(COCCSSC)OC)[C@]1(C)O[C@H]1[C@H](C)C1C[C@@](O)(NC(=O)O1)[C@H](OC)/C=C/C=C(\C)C2 (stereo partly drawn) [CE-056] | 39 | 17 | 217 |  |  |  |
| COc1cc2cc(c1Cl)N(C)C(=O)C[C@H](OC(=O)C(COCCCSSC)OC)[C@]1(C)O[C@H]1[C@H](C)C1C[C@@](O)(NC(=O)O1)[C@H](OC)/C=C/C=C(\C)C2 (single isomer, unassigned) [CE-055-1] |  |  |  | 8 | 6 | 3 |
| COc1cc2cc(c1Cl)N(C)C(=O)C[C@H](OC(=O)[C@H](C)OCCOCCOCCOCCOCCOCCN1C(=O)C=CC1=O)[C@]1(C)O[C@H]1[C@H](C)C1C[C@@](O)(NC(=O)O1)[C@H](OC)/C=C/C=C(\C)C2 [CE-046] | 375 | 462 | 232 |  |  |  |
| COc1cc2cc(c1Cl)N(C)C(=O)C[C@H](OC(=O)[C@H](C)OCCOCCSC1CC(=O)N(CCC(=O)NCCOCCOCCC(=O)ON3C(=O)CCC3=O)C1=O)[C@]1(C)O[C@H]1[C@H](C)C1C[C@@](O)(NC(=O)O1)[C@H](OC)/C=C/C=C(\C)C2 (stereo partly drawn) [XDCE-M-001] | 456 | 330 | 182 |  |  |  |
| COc1cc2cc(c1Cl)N(C)C(=O)C[C@H](OC(=O)[C@H]1CC[C@H](CSSC)CC1)[C@]1(C)O[C@H]1[C@H](C)[C@@H]1C[C@@](O)(NC(=O)O1)[C@H](OC)/C=C/C=C(\C)C2 [CE-031] | 7.5 | 15 | 9.2 |  |  |  |
